Measurements reported in patent US20170212981A1, “METHODS FOR SCREENING THERAPEUTIC AGENT FOR PROTEIN CONFORMATIONAL DISEASES” (SOOKMYUNG WOMEN'S UNIVERSITY INDUSTRY ACADEMIC COOPERATION …, priority 2016, published 2017).
Read-outs that look alike come from different tables or passages of the source.

Key:
[1] = test system: APP/PS1 transgenic (Tg) AD model mice; assay: Ex vivo imaging of brains after ip injection; assay type: in vivo
Method: For ex vivo imaging, a stock solution of BD-Oligo was made at 10 mM in 100% DMSO.
Eighteen month old APP/PS 1 transgenic (Tg) AD model mice were given intraperitoneal (ip) injections with either 1.25 μL of BD-Oligo diluted in 500 μL of saline (n=2) or 500 μL of saline alone (n=2). APP/PS 1 Tg mice develop amyloid plaques from 4 months of age. Mice were anesthetized with an overdose of sodium pentobarbital and perfused 0.1 M PBS, pH 7.4. Brains were removed 24 h after the ip injection and fixed by immersion in periodate-lysine-paraformaldehyde for 24 h, cryo-protected in 30% sucrose for 3 days, and sectioned into 40 μm coronal sections using a cryostat. Brain sections from the BD-Oligoinjected mouse and the control APP/PS 1 mouse that received a saline alone injection were then stained for Aβ using fluorescent immunohistochemistry. Briefly, free floating sections were incubated with MOM blocking reagent (Vector) followed by an overnight incubation at 4° C. with anti-Aβ antibodies 4G8 and 6E10 diluted in MOM protein concentrate (Vector), as the present inventors previously published. Sections were then incubated with a 488 conjugated secondary antibody (Jackson Immunoresearch) for 2 h at room temperature, mounted onto slides, and cover slipped. Staining was visualized using a LMD6500 fluorescent microscope (Leica); 6E10/4G8 staining was imaged using in the green (488) channel, and BD-Oligo was imaged in the red (561) channel.

[2] = biological target: T1, Aβ oligomers (Homo sapiens, UniProt P05067); assay: Saturation assay, apparent binding constant for Aβ oligomers; conditions: Aβ oligomers 20 μM, λex=530 nm
T1 construct: Preformed oligomers were prepared by Aβ1-40 peptide solubilized in borate-buffered saline; purchased American Peptide Co. (Sunnyvale, Calif.); host or cells: chemical synthesis, then cross-linked in house with glutaraldehyde
T1 sequence (P05067 672-711 limits assumed): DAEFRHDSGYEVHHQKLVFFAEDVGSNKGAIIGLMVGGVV
Method: FIG. 7 depicts BD-Oligo binding constant (Aβ oligomers: 20 μM, λex=530 nm), F is the fluorescence intensity of BD-Oligo at 580 nm after binding with Aβ oligomers; and F0 is the fluorescence intensity of BD-Oligo at 580 nm before binding with Aβ oligomers.
To quantify the affinity of BDOligo for Aβ oligomers, we measured the apparent binding constant (Kd) of BD-Oligo by conducting a saturation assay.

[3] = biological target: T2, Aβ1-40 monomers, oligomers, fibrils (Homo sapiens, UniProt P05067); assay: Emission of dye incubated with preformed Aβ monomers, oligomers and fibrils; assay type: binding; conditions: Aβ 20 μM
T2 construct: Synthetic Aβ1-40 was purchased from American Peptide Co; purchased American Peptide Co. (Sunnyvale, Calif.); host or cells: chemical synthesis
T2 sequence (P05067 672-711 limits assumed): as above
Method: Synthetic Aβ1-40 was purchased from American Peptide Co. (Sunnyvale, Calif.) in lyophilized form. Dry peptide was dissolved in 1,1,1,3,3,3-hexafluoro-2-isopropanol (HFIP) and incubated at 25° C. for 1 h to remove any preformed aggregates. It was aliquoted into small aliquots and dried using a speed-vac. The dry peptide was stored at −20° C. until required, where each aliquot was then dissolved in 5 M GuHCl 10 mM Tris.Cl pH 8 to 1 mM peptide solution. After sonication in a sonicating water bath for 15 min, the solution was diluted with phosphate-buffered saline (PBS), pH 7.4, and stored on ice until use. This freshly prepared sample is referred to as monomer. To form fibrils, 100 μM sample is incubated for 24 h at 37° C. with 5 s shaking at a 7 min interval. […] Prior to fluorescence assays, it is resolubilized in deionized distilled water and diluted in PBS. […]
HPLC-MS was taken on an Agilent-1200 with a DAD detector and a single quadrupole mass spectrometer (6130 series). […] Spectroscopic and quantum yield data were measured on a SpectraMax M2 spectrophotometer (Molecular Devices). Compounds in solvent (100 μL) in 96-well polypropylene plates was for fluorescence measurement. […] 1H-NMR and 13C-NMR spectra were recorded on Bruker AMX500 (500 MHz) spectrometers, and chemical shifts are expressed in parts per million (ppm) and coupling constants are reported as a J value in Hertz (Hz).

[4] = biological target: T3, Aβ1-40 (Homo sapiens, UniProt P05067); assay: Time-dependent fibril formation monitored by dye fluorescence; assay type: binding; conditions: Aβ1-40 at 37° C. with shaking; aliquots added to dye
T3 construct: Synthetic Aβ1-40 was purchased from American Peptide Co; purchased American Peptide Co. (Sunnyvale, Calif.); host or cells: chemical synthesis
T3 sequence (P05067 672-711 limits assumed): as above
Method: For monitoring of fibril formation over time, 40 µM peptide solution of Aβ1-40 was prepared as above and incubated at 37° C. with 5 s shaking at every 7 min interval. Fluorescence readings were taken at various time point intervals by mixing a 30 μL aliquot of peptide solution to […]. ThT signal was monitored at 480 nm by 444 nm excitation, whereas BD-Oligo was excited at 530 nm and its emission detected at 585 nm. Fluorescence was measured using a SpectraMax M2 spectrophotometer (Molecular Devices, Sunnyvale, Calif.). Aβ1-40 was also coincubated with dye to study any effects the dye may have on fibril formation.

| SMILES | toxicity associated with in vivo injection ([1]; 18 month old APP/PS1 Tg mice) | blood-brain barrier penetration ([1]; 18 month old APP/PS1 Tg mice, brains removed after 24 h) | labeling of brain tissue ([1]; brain sections 24 h later, co-stained with anti-Aβ 6E10/4G8) | Bmax, best-fit value ([2]; detailed statistics of the saturation fit) | Kd ([2]; detailed statistics of the saturation fit, read-out: Kd, best-fit value) | Kd ([2]; saturation assay, Scatchard plot, emission 580 nm, read-out: apparent binding constant (Kd) for Aβ oligomers) | fluorescence enhancement with Aβ monomers, oligomers, fibrils ([3]; λex=530 nm) | incubation time at maximum fluorescence during Aβ fibril formation [4] | fluorescence response to Aβ monomers, oligomers, fibrils ([3]; λex=440 nm, dye 5 μM) |
| --- | --- | --- | --- | --- | --- | --- | --- | --- | --- |
| CCOc1cccc(C=Cc2cc(C)c3n2[B-](F)(F)[N+]2=C(CCC(=O)OCC(Cl)(Cl)Cl)C=CC2=C3)c1O [BD-Oligo] | no apparent toxicity | able to cross the BBB | fluorescent labeling of AD brain tissue | 7.886 | 0.482 µM | 0.48 µM | highest fluorescence enhancement is observed upon incubation with Aβ oligomers | about 1 day |  |
| Cc1ccc2c(c1)sc(-c1ccc(N(C)C)cc1)[n+]2C.[Cl-] [ThT, Thioflavin T, reference compound] |  |  |  |  |  |  |  | about 1 day | increasing order of freshly prepared Aβ monomers, followed by oligomer and fibrils |
